Experimental data reported in patent US10770169B2, “Method of providing a treatment to a subject based on a dynamic pathway map” (THE REGENTS OF THE UNIVERSITY OF CALIFORNIA, priority 2010, dated 2020).

Key:
[1] = system: panel of 55 breast cancer cell lines; assay: Cell growth inhibition assay (Cell Titer Glo, 72 h, 9 doses; GI50, TGI, LC50); type: cell-based, human; conditions: value is the negative log10 of mol/L
[2] = system: luminal, basal, claudin-low and ERBB2AMP breast cancer cell lines; assay: Associations of clinically relevant subtypes and response (non-parametric ANOVA or t-test on GI50 ranks); type: cell-based, human
Summary of the method: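 Significance was set at FDR p<0.20 after combining p-values across three test sets. Subtype–response associations came from rank-based non-parametric ANOVA or t-tests on GI50. For three-class comparisons, post-hoc tests of each group against the rest identified the most sensitive group, with FDR correction.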

## COc1cc2ncnc(Nc3cccc(Cl)c3)c2cc1OC [AG1478]
[1]; 600MPE cell line, censored GI50 values
  GI50: 3.99
[1]; AU565 cell line, censored GI50 values
  GI50: 4.57
[1]; BT474 cell line, censored GI50 values
  GI50: 6.17
[1]; BT483 cell line, censored GI50 values
  GI50: 5.64
[1]; BT549 cell line, censored GI50 values
  GI50: 4.41
[1]; CAMA1 cell line, censored GI50 values
  GI50: 4.46
[1]; HCC38 cell line, censored GI50 values
  GI50: 4.03
[1]; HCC202 cell line, censored GI50 values
  GI50: 5.75
[1]; HCC1395 cell line, censored GI50 values
  GI50: 4.57
[1]; HCC1419 cell line, censored GI50 values
  GI50: 5.92
[1]; HCC1500 cell line, censored GI50 values
  GI50: 4.58
[1]; HCC1806 cell line, censored GI50 values
  GI50: 4.07
[1]; HCC1937 cell line, censored GI50 values
  GI50: 4.88
[1]; HCC1954 cell line, censored GI50 values
  GI50: 5.64
[1]; HCC2185 cell line, censored GI50 values
  GI50: 4.33
[1]; MDAMB134VI cell line, censored GI50 values
  GI50: 4.00
[1]; MDAMB157 cell line, censored GI50 values
  GI50: 4.47
[1]; MDAMB175VII cell line, censored GI50 values
  GI50: 6.19
[1]; MDAMB361 cell line, censored GI50 values
  GI50: 4.71
[1]; MDAMB436 cell line, censored GI50 values
  GI50: 3.99
[1]; MDAMB468 cell line, censored GI50 values
  GI50: 4.02
[1]; SKBR3 cell line, censored GI50 values
  GI50: 4.92
[1]; SUM149PT cell line, censored GI50 values
  GI50: 5.74
[1]; SUM159PT cell line, censored GI50 values
  GI50: 4.77
[1]; SUM1315MO2 cell line, censored GI50 values
  GI50: 5.60
[1]; T47D cell line, censored GI50 values
  GI50: 4.74
[1]; UACC893 cell line, censored GI50 values
  GI50: 5.65
[1]; cell line 600MPE
  GI50: 3.99
[1]; cell line AU565
  GI50: 4.57
[1]; cell line BT474
  GI50: 6.17
[1]; cell line BT483
  GI50: 5.64
[1]; cell line BT549
  GI50: 4.41
[1]; cell line CAMA1
  GI50: 4.46
[1]; cell line HCC38
  GI50: 4.03
[1]; cell line HCC70
  GI50: 3.94
[1]; cell line HCC202
  GI50: 5.75
[1]; cell line HCC1143
  GI50: 3.78
[1]; cell line HCC1187
  GI50: 3.78
[1]; cell line HCC1395
  GI50: 4.57
[1]; cell line HCC1419
  GI50: 5.92
[1]; cell line HCC1428
  GI50: 3.78
[1]; cell line HCC1500
  GI50: 4.58
[1]; cell line HCC1806
  GI50: 4.07
[1]; cell line HCC1937
  GI50: 4.88
[1]; cell line HCC1954
  GI50: 5.64
[1]; cell line HCC2185
  GI50: 4.33
[1]; cell line LY2
  GI50: 3.78
[1]; cell line MDAMB134V
  GI50: 4.00
[1]; cell line MDAMB157
  GI50: 4.47
[1]; cell line MDAMB175V
  GI50: 6.19
[1]; cell line MDAMB361
  GI50: 4.71
[1]; cell line MDAMB415
  GI50: 3.78
[1]; cell line MDAMB436
  GI50: 3.99
[1]; cell line MDAMB453
  GI50: 3.78
[1]; cell line MDAMB468
  GI50: 4.02
[1]; cell line SKBR3
  GI50: 4.92
[1]; cell line SUM52PE
  GI50: 3.78
[1]; cell line SUM149PT
  GI50: 5.74
[1]; cell line SUM159PT
  GI50: 4.77
[1]; cell line SUM185PE
  GI50: 3.78
[1]; cell line SUM1315MO
  GI50: 5.60
[1]; cell line T47D
  GI50: 4.74
[1]; cell line UACC893
  GI50: 5.65
[1]; cell line ZR75B
  GI50: 3.78
[1]; cell line ZR751
  GI50: 3.78
[2]
  association of response with ERBB2 amplification: positively associated with ERBB2 amplification
[2]; Table 6, most sensitive subtype, FDR p<0.20
  Subtype specificity: ERBB2AMP
